# Results from patent US20230302033A1, “FORMULATIONS OF NICOTINIC ACID DERIVATIVES AND FLAVONOID POLYPHENOLS AND USES THEREOF” (Animal Biosciences, Inc., priority 2021, published 2023).
# Entries after “also recorded” stand apart in the source; their conditions may differ.
# How the values were obtained:
# NAD = assay: Bioavailability and pharmacokinetics of NaR and fisetin: whole blood NAD (Example 6, Studies #1 and #2); type: in vivo, Canis familaris (dog)/Beagle
# Method: A series of pharmacokinetic studies were conducted to evaluate the bioavailability of a series of dosages and dosing regimens as measured in whole blood in non-fasted, adult Beagle dogs. NaR, NMN, Fisetin, individually and combination dosing (NaR-Fisetin and NMN-Fisetin) were tested.
# Tables 1 and 2 show the dosing regimens of Study #1 conducted over 7 days and Study #2 conducted over 28 days, respectively. In Study #1, three dosage combinations were tested (Groups 1-3). An additional group (Group 4) was included to test the effects of fasting on the whole blood concentration of NAD. In Study #2, the effects of each compound individually and in combination were evaluated (Groups 1-3). Study #2 contained another test group (Group 4), which was included to compare the effects of NMN vs NaR in combination with Fisetin by Day 7 to determine if the effects seen on NAD concentration were unique to NaR vs. NAD booster, in general. Baseline NAD concentrations sampled over 24 hours on day −7 served as controls for endogenous NAD concentrations.
# Two mL blood samples were collected at each time point using K2EDTA as an anticoagulant from all animals in each dose group. A sample was obtained prior to dosing (Day −7 pre-dose). On Day −7, groups 1-3 had 1 sample collected prior to feeding, and at times 0, 0.25, 0.5, 1, 2, 4, 6, 8, 12, and 24 hours post-Time Zero. On Day 2, groups 1-3 had 1 sample collected prior to feeding (˜2 hr prior to Time Zero) and at times 0, 0.25, 0.5, 1, 2, 4, 6, 8, 12, and 24 hours post-dose. On Days 3-5, samples were collected 2 hours post-dose, and on Day 7 samples were collected prior to feeding Groups 1-3 (˜2 hours prior to Time Zero) from all animals, and at time points 0.25, 0.5, 1, 2, 4, 6, 8, 12, and 24 hours post-dose.
# For Group 2, on Day 21, post-dosing, and on Day 35, one sample was collected prior to feeding, and at times 0, 0.25, 0.5, 1, 2, 4, 6, 8, 12, and 24 hours post-Time Zero. The samples were processed for NAD+.
# Two mL blood samples were collected at each time point using K2EDTA as an anticoagulant from all animals in each dose group. On Day 0 each group had 1 sample collected at times 0, 0.5, 1, 2, 4, 8, and 12 hours post-Time Zero. On Days 1, 2, 3, and 7, each group had 1 sample collected at times 0, 0.5, 1, 2, 4, 8, and 12 hours post-dose. On Days 14, 21, and 28 Groups 1-3 had samples taken at 0, 0.5, 1, 2, and 12 hours post-dose.
# Immediately after collection, the sample tubes were inverted multiple times to ensure homogenization, then placed in an ice water bath until analysis. All samples were processed for NAD+ analysis and Fisetin analysis.
# The bioanalytical data was used in the generation of a pharmacokinetic data using parameters calculated for each individual animal for Days 2 and 7, including: Tmax, Cmax, AUC0-24 and T½, as described in the previous examples, and the effect of repeat dosing on exposure was assessed by statistical analyses, e.g., mean and standard deviation for numerical parameters.
# [1] = system: mature purpose-bred beagles and mongrels; assay: Activity and safety of orally administered NaR, 28-day placebo-controlled study; type: in vivo
# Description: A double blinded, placebo-controlled, non-randomized laboratory study to assess activity and safety was completed in 15 mature purpose-bred beagles and mongrels over a period of 28 days. The four males and 11 females ranged in age from 4-11 years, with a mean of 7.75 years. Body weights for beagles (n=12) were 9.5-15 kg and for mongrels (n=3) 24-40 kg. The animals were fitted with activity collars and housed in a room that allowed free movement for ˜ nine hours per day. They received three enrichment periods of 15 minutes per day consisting of interaction with caretakers. The activity of the animals was tracked 24 hours per day using actigraphy (accelerometers attached to the animal's collar) and force plate analysis for assessing changes to gait. A modified canine cognitive dysfunction rating (CCDR) (Madari et al., “Assessment of Severity and Progression of Canine Cognitive Dysfunction Syndrome Using the Canine Dementia Scale (CADES),” Applied Animal Behaviour Science 171: 138-145 (2015), which is hereby incorporated by reference in its entirety) and canine orthopedic index (COI) (Brown, D., “The Canine Orthopedic Index. Step 1: Devising the Items,” Veterinary Surgery 43: 232-240 (2014); Brown, D., “The Canine Orthopedic Index. Step 2: Psychometric Testing,” Veterinary Surgery 43: 241-246 (2014); and Brown, D., “The Canine Orthopedic Index. Step 3: Responsiveness Testing,” Veterinary Surgery 43: 247-254 (2014), which are hereby incorporated by reference in their entirety) were completed pretreatment, and on days 14 and 28. Physical examination, body weight, body condition score (BCS) and complete blood count and blood chemistry were evaluated pretreatment and weekly. The animals were dosed orally with capsules daily after an overnight fast.
# aged C56BL/6 male mice = assay: Frailty measurements in aged mice (Frailty Index, FRIGHT Age, AFRAID score); type: in vivo
# Method: Frailty was measured in aged C56BL/6 male mice, starting at 18 months old (n=50 per group) monthly, over time compared with placebo-treated controls. NaR was administered in the water in low and high dosages of 60 and 400 mg/kg. The animals were group housed 4 per cage and the water was changed weekly. The animals were fed ad libitum and received daily photoperiods of approximately 12 hours of light alternating with 12 hours of darkness.
# Three validated scoring methods, Frailty Index (Whitehead et al., “A clinical frailty index in aging mice: Comparisons with frailty index data in humans” J Gerontol A Biol Sci Med Sci. 69:621-632(2014)), FRIGHT Age (Schultz et al., “Age and life expectancy clocks based on machine learning analysis of mouse frailty” Nature Comm. 11(1):4618 (2020)) and AFRAID score (Schultz et al., “Age and life expectancy clocks based on machine learning analysis of mouse frailty” Nature Comm. 11(1):4618 (2020)) were conducted at 25 months of age. […]
# NAD+ = assay: Treated whole blood NAD+ pharmacokinetics after 7-day oral NaR (Examples 1 and 4); type: in vivo, Canis familaris (dog)/Beagle
# Method: (§1) The appropriate number of NaR capsules were administered once daily to non-naïve male beagle dogs. Capsules were followed by at least 5 mL of tap water to ensure complete delivery. Animals were fed approximately 2 hours prior to dosing, with food removed approximately 2 hours post-dose. Samples for bioanalysis were collected during the pre-dose period (Day −7; based on Time Zero of 9 am) at 0, 0.25, 0.5, 1, 2, 4, 6, 8, 12, and 24 hours post-Time Zero. Samples were collected on Day 1 and 7 at 0, 0.25, 0.5, 1, 2, 4, 6, 8, 12, and 24 hours post dose, and on Days 3-5 at 2 hours post dose. Samples were analyzed for NAD+ using a bioassay.
# A non-compartmental Pharmacokinetic (PK) approach consistent with oral route of administration was used to estimate PK parameters in Watson LIMS (version 7.5). All parameters were generated from individual concentrations in treated whole blood whenever practical. Mean values for each dose group were also reported. All concentration values were in ng/mL, and all time points were in hours. Nominal dose concentrations and sampling times were used. The observed maximum treated whole blood concentration (Cmax), time of Cmax (Tmax), and AUC (area under the concentration vs. time curve) were determined directly from the data during the entire 24 hour time interval post dosing. The dose levels were either 10, 20, or 30 mg/kg/day (Groups 1, 2, and 3, respectively). PK samples were collected on days −7 predose, 1 and 7 post dose, of a seven day once daily study. Samples on days 3, 4, and 5 postdose, at only one timepoint were collected but not included in PK parameter estimation.
# Whenever possible, standard deviation and coefficient of variation determined by Watson LIMS were used. For analyses that were not supported by Watson, i.e. custom comparisons, Excel was used, and the statistics were reported as determined by Excel algorithms.
# purpose-bred beagles = assay: Tolerability of orally administered NaR, single dose escalation and 7-day repeat dosing; type: in vivo
# Method: The tolerability of NaR administered orally was determined in a two-phase laboratory study in purpose-bred beagles (male and female, 6.3-9.2 kg, 6 months old at the start of the study). The first phase of the study included single dose escalations of 100, 300, 1000 and 2000 mg/kg (n=4 per group). The second phase tested repeat dosing consisting of daily dosing over seven days of 100, 300 and 1000 mg/kg (n=6 per group). Administration occurred via oral gavage with an 18 French catheter into the stomach. The animals were assigned to groups by a stratified randomization scheme designed to achieve similar group mean body weights. Males and females were randomized separately.
# male Beagle dogs = assay: Seven day repeat dose tolerability study of NaR; type: in vivo, Canis familaris (dog)/Beagle; conditions: oral capsule, 10, 20 and 30 mg/kg/day for seven days
# Method: The objective of this study was to evaluate the tolerability and pharmacokinetic profile following 7-days of repeat dose administration of NaR.
# NaR is provided as 100 mg capsule, size 4, stored at 18-26° C., and fisetin is provided as 100 mg capsule, size 0, stored at 18-26° C. Canis familaris (dog)/Beagle—nine non-naïve males, age 1-3 years, weight 7-11 kg.
# as §1
# [2] = Beagle dogs, all dosing regimens of Studies #1 and #2
# [3] = treated dogs compared with controls, oral capsules daily, 28 days
# [4] = Beagle dogs, oral NaR 10, 20, 30 mg/kg/day, post dose
# [5] = beagles, oral gavage, highest dosage tested
# [6] = beagles, oral gavage, single 100-2000 mg/kg and 7-day 100-1000 mg/kg
smiles,measurement,setting,value
"O=C([O-])c1ccc[n+]([C@@H]2O[C@H](CO)[C@@H](O)[C@H]2O)c1 [NaR, nicotinic acid riboside]",median AUC0-24 of whole blood NAD,NAD; [2],"133,000 ng·h/mL"
same,median Cmax of whole blood NAD,NAD; [2],6990 ng/mL
same,NAD concentration from Day 7 to Day 28,"NAD; NaR only dosing, 20 mg/kg",decrease
same,NAD concentration from Day 1 to Day 7,"NAD; NaR only dosing, all dose levels",increase
same,"AUC and NAD concentrations, NaR only dose levels compared","NAD; NaR only, dose of 20 mg/kg",highest AUC and NAD concentrations
same,adverse clinical observations,"[1]; oral capsules daily, 28 days",No adverse clinical observations
same,blood chemistry and hematology results,"[1]; oral capsules daily, 28 days",remained within the reference ranges
same,canine cognitive dysfunction rating (CCDR) and canine orthopedic index (COI),"[1]; pretreatment, days 14 and 28",No changes
same,"movement when resting (sleep), actigraphy",[1]; [3],less movement when resting
same,"overall activity (frequency and intensity), diurnal rhythm, actigraphy",[1]; [3],increase in overall activity
same,"Frailty vs controls, both treatment groups (60 and 400 mg/kg)",aged C56BL/6 male mice; in two of the three methods,significantly different
same,"Frailty vs controls by all three methods (Frailty Index, FRIGHT Age, AFRAID score)","aged C56BL/6 male mice; low dose 60 mg/kg in the water, end of the study, p<0.05",significantly less frail
same,Median Tmax of NAD+ in treated whole blood,NAD+; [4],less than 2 hours
same,"Tmax of NAD+, range of values",NAD+; [4],0 to 2 h
same,NAD+ levels after oral capsule administration,"NAD+; Beagle dogs, oral capsule, 10-30 mg/kg/day, 7 days",measurable increases
same,"Mean Cmax of NAD+, change between Day 1 and Day 7","NAD+; all dose groups (10, 20, 30 mg/kg/day)",accumulation; also recorded: increase
same,"NAD+ Cmax ratio between Day 7 and Day 1, individual animals",NAD+; highest dose group (30 mg/kg/day) compared to the others,clear increase
same,"NAD+ AUC0-24 ratio between Day 7 and Day 1, individual animals",NAD+; mid dose group (20 mg/kg/day) compared to the other two groups,higher value
same,Bioavailability (conclusion from NAD+ bioanalysis),"NAD+; oral capsule, Beagle dogs",bioavailable
same,increase in sorbitol dehydrogenase (SDH) activity,"purpose-bred beagles; 300 and 1000 mg/kg males, 300 mg/kg females, Day 2 vs pretreatment, low magnitude (e.g., 0 U/L to 2 U/L)",non-adverse
same,"maximum tolerated dosage, 7-day repeat dosing phase",purpose-bred beagles; [5],1000 mg/kg/day
same,"maximum tolerated dosage, single dosing phase",purpose-bred beagles; [5],2000 mg/kg
same,Body weights and food consumption,purpose-bred beagles; [6],unaffected by treatment
same,Survival,purpose-bred beagles; [6],All animals survived
same,treatment related clinical observations,purpose-bred beagles; [6],no treatment related clinical observations
same,"test article-related effects on mortality or moribundity, clinical observations, body weight, food consumption; tolerability",male Beagle dogs,no test article-related effects; also recorded: well tolerated
"O=c1c(O)c(-c2ccc(O)c(O)c2)oc2cc(O)ccc12 [fisetin, 3,3′,4′,7-tetrahydroxyflavone]",NAD concentration at Day 28,NAD; fisetin only dosing,returned to baseline
same,"NAD concentration at days 7, 14 and 21",NAD; fisetin only dosing,decreased
same,whole blood NAD concentration,"NAD; fisetin only dosing, 20 mg/kg",below 7000 ng/mL
